# Numbers after ± are expanded uncertainties.
# Settings: Liquid; flow method with low residence time
Critical pressure [kPa],Critical temperature [K],Structure (SMILES)
3033 ± 27,507.8 ± 0.4,CCCCCC [hexane]
4074 ± 36,553.6 ± 0.4,C1CCCCC1 [cyclohexane]
2496 ± 24,568.9 ± 0.4,CCCCCCCC [octane]
6141 ± 51,514 ± 0.4,CCO [ethanol]
2736 ± 25,540.1 ± 0.4,CCCCCCC [heptane]
3346 ± 30,578.1 ± 0.4,CCOC(=O)OCC [diethyl carbonate]
